Series [1] relates to MDA-MB435-To.1 human Taxol-resistant breast adenocarcinoma cells. The series is described as follows: MDA-MB435-To.1 Taxol-resistant breast adenocarcinoma, fat pad, SCID mice (2.5). Format: in vivo, human cells in mice. Here is the method: BxPC-3 is a gemcitabine resistant call line. […] Gemcitabine was administered intravenously every three days at a dose of 100 mg/kg. Antitumour activities were estimated by the inhibition of tumour volume, which was measured with caliper. Each point represents mean tumour volume calculated from 10 animals per experimental group. […] Hela S3 is a hydroxyurea resistant cell line. […] Hydroxyurea was administered intraperitoneally every day at a dose of 250 mg/kg for 10 days. Cisplatin was administered intravenously once a week for three weeks at a dose of 4 mg/kg. Antitumour activities were estimated by the inhibition of tumour volume, which was measured with caliper. Each point represents mean tumour volume calculated from 10 animals per experimental group. […] Cisplatin was administered intravenously once a week for three weeks at a dose of 4 mg/kg. Taxol was administered intravenously once a week for three weeks at a dose of 10 mg/kg. Antitumour activities were estimated by the inhibition of tumour volume, which was measured with caliper. Each point represents mean tumour volume calculated from 10 animals per experimental group. […] Taxol was administered i.p. once a week at a dose of 10 mg/kg. Antitumour activities were estimated by the inhibition of tumour volume (FIG. 12A), which was measured with calipers. Each point represents mean tumour volume calculated from 10 animals per experimental group. Animals were sacrificed and tumour weights taken at the end of the study (FIG. 12C). […] Cisplatin was administered intravenously once a week for four weeks at a dose of 4 mg/kg. Taxol was administered intravenously once a week for four weeks at a dose of 20 mg/kg. Antitumour activities were estimated by the inhibition of tumour volume, which was measured with caliper. Each point represents mean tumour volume calculated from 9-10 animals per experimental group. […] Cisplatin was administered intravenously once a week for four weeks at a dose of 4 mg/kg. Antitumour activities were estimated by the inhibition of tumour volume, which was measured with caliper. Each point represents mean tumour volume calculated from 10 animals per experimental group. At the end of the study the animals were sacrificed and tumours weighed. […] Taxol was administered i.p. once a week at a dose of 10 mg/kg. Anti-tumour activity was estimated by the inhibition of tumour volume, which was measured with caliper. Each point represents mean tumour volume calculated from 10 animals per experimental group. In addition animals were sacrificed and tumour weights taken at the end of the study. […] CPT-11 was administered i.p. for 5 days at a dose of 20 mg/kg/day. Antitumour activities were estimated by the inhibition of tumour volume, which was measured with caliper. Each point represents mean tumour volume calculated from 10 animals per experimental group. Tumour weights were measured after animals were sacrificed at the end of the treatment. These cells are not resistant to CPT-11 which was used as a positive control.

Series [2] concerns SU.86.86 human pancreatic cancer cells. The experiment in a line: SU.86.86 pancreatic tumour growth in CD-1 nude mice (3.6). It is filed as in vivo, human cells in mice. Here is the method:
Treatments lasted for 14 days thereafter. Antitumour activities were estimated by the inhibition of tumour volume, which was measured with a caliper on four different occasions over the treatment period. Each point represents mean tumour volume calculated from 5 animals per experimental group. […] Control animals (control) received saline alone for the same period. At the end of the treatments, the animals were sacrificed, tumours were excised and their weights were measured. Each bar represents mean tumour weight calculated from 6 animals per experimental group. […] Treatments lasted for 24 days thereafter. Antitumour activities were estimated by the inhibition of tumour volume, which was measured with a caliper at two-day intervals over the treatment period. Each point represents mean tumour volume calculated from 4 animals per experimental group. […] Treatments lasted for 24 days thereafter. Antitumour activities were estimated by the inhibition of tumour volume, which was measured with a caliper at two-day intervals over the treatment period. Each point represents mean tumour volume calculated from 4 animals per experimental group. […] Each point represents mean tumour volume calculated from 5 animals per experimental group. […] Antitumour activities were estimated by the inhibition of tumour volume, which was measured with a caliper on four different occasions over 16-day period. Each point represents mean tumour volume calculated from 5 animals per experimental group. […] Antitumour activities were estimated by the inhibition of tumour volume, which was measured with a caliper at two-day intervals over the treatment period. Each point represents mean tumour volume calculated from 5 animals per experimental group. […] Antitumour activities were estimated by the inhibition of tumour volume, which was measured with a caliper at various time intervals over the span of 30 days. Each point represents mean tumour volume calculated from 6 animals per experimental group. […] Antitumour activities were estimated by the inhibition of tumour volume, which was measured with a caliper. […]

Entries after “also recorded” stand apart in the source; their conditions may differ.

For “5′-GGCTAAATCGCTCCACCAAG-3′ (all phosphorothioate, sugars by position and methylation of C not given here) [SEQ ID NO: 1, fully phosphorothioated antisense oligonucleotide that hybridizes to the coding region of R2 mRNA]”, in series [1] (MDA-MB435-To.1 (breast), Taxol resistant, SCID, SEQ ID NO:1 10 mg/kg i.v. every other day 15 times, Taxol 20 mg/kg, Cisplatin 4 mg/kg i.v. weekly x4), the “Tumour weight as % of saline control” value came out at 42%. Further, in series [1] (MDA-MB435-To.1 Taxol-resistant, SCID mice, SEQ ID NO:1 10 mg/kg i.v. every other day, Cisplatin 4 mg/kg, Taxol 20 mg/kg i.v. weekly), the “Antitumour effect (FIG. 13)” value was “significant reduction of tumour weight compared to saline control; also recorded: superior to the inhibitory effects observed with Cisplatin”. In series [2] (Human Pancreatic Adenocarcinoma), the “Inhibition of tumour weight” value is given as ~65%. The “Inhibition of tumour growth” value in series [2] (Human Pancreatic Adenocarcinoma, up to 39 days after tumour implantation) is given as “Complete inhibition of tumour growth up to 39”. In addition, the “Inhibitory effect on tumour growth (tumour volume, FIG. 19)” value in series [2] (SU.86.86, CD-1 nude mice, 10 mg/kg i.v. every other day, 34 days, two batches) is “strong inhibitory effects on the growth of human pancreatic carcinoma”.
